Results reported in patent EP4772513A1, “PI3K-ALPHA INHIBITOR AND USE THEREOF” (TYK Medicines (Zhengzhou), Inc., priority 2023, dated 2025).

What was measured:
[1] = test system: Human breast cancer cells SK-BR-3 (WT); experiment: Cell proliferation inhibition assay (CTG), SK-BR-3 (WT); format: cell-based; details: Homo sapiens, 72 h, SK-BR-3 (WT) cells, 3 days incubation, CTG readout
Method: (§1) Cell Proliferation Inhibition Assay
(§2) 1. Experimental Materials
(§3) II. Experimental Protocol
(§4) • a) Cell suspension was prepared; • b) The medium was removed from the culture flask; • c) The cells were rinsed once with PBS; • d) Trypsin was added for digestion, and the cells were centrifuged and collected; • e) The cells were resuspended in medium, counted and adjusted to an appropriate concentration; • f) 100 µL of cell suspension was added to each well of a 96-well plate. One plate was used for each cell line, which was incubated overnight in a 37 °C, 5% CO2 incubator.
(§5) 2. Treatment of Compounds
(§6) • a) Serial dilutions of the test compounds were prepared: The compound was prepared as a 10 mM stock solution. 18 µL of the stock solution was dissolved in 982 µL of the culture medium containing DMSO, followed by 4-fold serial dilutions in culture medium containing 0.5% DMSO to give 9 concentrations. The concentrations of the diluted compound were as follows: 180000 nM, 45000 nM, 11250 nM, 2812.5 nM, 703.13 nM, 175.78 nM, 43.95 nM, 10.99 nM, and 2.75 nM. • b) After thorough mixing, 20 µL of each compound solution was added to the cell plate containing 100 µL of cells per well. Each concentration was tested in triplicate. Final concentrations of the compound were as follows: 30000 nM, 7500 nM, 1875 nM, 468.75 nM, 117.188 nM, 29.30 nM, 7.32 nM, 1.83 nM, and 0.46 nM. • c) The cells were transferred into the incubator and incubated for 3 days.
(§7) The cell plate was removed, 25 µL of CTG reagent was added to each well of the 96-well plate, the mixture was shook on a plate shaker at room temperature for 10 minutes, and the plate was read.
(§8) The cell survival rate was calculated using the following formula (% Cell Survival): % Cell Survival = 100% × (OD_Sample−OD_LCave)/(OD_HC−OD_LCave) [formula] • OD_HC: Reading of the 0.1‰ DMSO control group • OD_Sample: Reading of cells treated with compound • OD_LCave: Reading of blank medium
(§9) Analyzed by Prism: Dose-response-Inhibition - Log (inhibitor) vs response (three parameters for the best fit).

[2] = test system: Human breast cancer cells T47D (H1047R); experiment: Cell proliferation inhibition assay (CTG), T47D (H1047R); format: cell-based; details: Homo sapiens, 72 h, 3 days incubation, CTG readout
Method: as §1, §2, §3, §4, §5, §6, §7, §8, §9

Row | SMILES | IC50 [1] [nM] | IC50 [2] [nM]
1 | Cc1cc([C@@H](C)Nc2ccccc2C(=O)O)c2oc3c(c(=O)c2c1)CCN(S(=O)(=O)N1CCOC2(CC2)C1)C3 [Compound C147] | > 5000 | ≤ 500
2 | C[C@@H](Nc1ccccc1C(=O)O)c1cc(F)cc2c(=O)c3c(oc12)CN(S(=O)(=O)N1CCOC2(CC2)C1)CC3 [Compound C148] | > 5000 | ≤ 500
3 | Cc1cc([C@@H](C)Nc2ccccc2C(=O)O)c2oc3c(c(=O)c2c1)CCN(S(=O)(=O)c1cccc2c1CCO2)C3 [Compound C149] | > 5000 | ≤ 500
4 | C[C@@H](Nc1ccccc1C(=O)O)c1cc(F)cc2c(=O)c3c(oc12)CN(S(=O)(=O)c1cccc2c1CCO2)CC3 [Compound C150] | > 5000 | ≤ 500
5 | Cc1cc([C@@H](C)Nc2ccccc2C(=O)O)c2oc3c(c(=O)c2c1)CCN(S(=O)(=O)c1c(Cl)ccc2c1CCO2)C3 [Compound C151] | > 5000 | ≤ 500
6 | C[C@@H](Nc1ccccc1C(=O)O)c1cc(F)cc2c(=O)c3c(oc12)CN(S(=O)(=O)c1c(Cl)ccc2c1CCO2)CC3 [Compound C152] | > 5000 | ≤ 500
7 | Cc1cc([C@@H](C)Nc2ccccc2C(=O)O)c2oc3c(c(=O)c2c1)CCN(S(=O)(=O)N1CCC(F)(F)CC1)C3 [Compound C153] | > 5000 | ≤ 500
8 | Cc1cc([C@@H](C)Nc2ccccc2C(=O)O)c2oc3c(c(=O)c2c1)CCN(S(=O)(=O)N1C[C@@H](C)O[C@H](C)C1)C3 [Compound C154] | > 5000 | ≤ 500
9 | C[C@@H]1CN(S(=O)(=O)N2CCc3c(oc4c([C@@H](C)Nc5ccccc5C(=O)O)cc(F)cc4c3=O)C2)C[C@@H](C)O1 [Compound C155] | > 5000 | ≤ 500
10 | Cc1cc([C@@H](C)Nc2ccccc2C(=O)O)c2oc3c(c(=O)c2c1)CCN(S(=O)(=O)c1c(C)nnn1C)C3 [Compound C156] | > 5000 | ≤ 500
11 | Cc1nnn(C)c1S(=O)(=O)N1CCc2c(oc3c([C@@H](C)Nc4ccccc4C(=O)O)cc(F)cc3c2=O)C1 [Compound C157] | > 5000 | 500 to 2000
12 | Cc1cc([C@@H](C)Nc2ccccc2C(=O)O)c2oc3c(c(=O)c2c1)CCN(S(=O)(=O)c1c(C)cnn1C)C3 [Compound C158] | > 5000 | ≤ 500
13 | Cc1cnn(C)c1S(=O)(=O)N1CCc2c(oc3c([C@@H](C)Nc4ccccc4C(=O)O)cc(F)cc3c2=O)C1 [Compound C159] | > 5000 | ≤ 500
14 | Cc1nsc(C)c1S(=O)(=O)N1CCc2c(oc3c([C@@H](C)Nc4ccccc4C(=O)O)cc(F)cc3c2=O)C1 [Compound C160] | > 5000 | ≤ 500
15 | Cc1cc([C@@H](C)Nc2ccccc2C(=O)O)c2oc3c(c(=O)c2c1)CCN(S(=O)(=O)c1ccccc1F)C3 [Compound C162] | > 5000 | ≤ 500
16 | CCOC(=O)c1ccccc1N[C@H](C)c1cc(C)cc2c(=O)c3c(oc12)CN(S(=O)(=O)N1CCOCC1)CC3 [Compound C165] | > 5000 | 500 to 2000
17 | Cc1cc([C@@H](C)Nc2ccccc2C(=O)O)c2oc3c(c(=O)c2c1)CCN(S(C)(=O)=O)C3 [Compound C168] | > 5000 | 500 to 2000
18 | Cc1cc([C@@H](C)Nc2ccccc2C(=O)O)c2oc3c(c(=O)c2c1)CCN(C(C)C)C3 [Compound C171] | > 5000 | 500 to 2000
19 | Cc1cc([C@@H](C)Nc2ccccc2C(=O)O)c2oc3c(c(=O)c2c1)CCN(c1ccccn1)C3 [Compound C172] | > 5000 | ≤ 500
20 | Cc1cc([C@@H](C)Nc2ccccc2C(=O)O)c2oc3c(c(=O)c2c1)CCN(C1CC2CCC1C2)C3 (stereo partly drawn) [Compound C173] | > 5000 | 500 to 2000

The remaining lines, values ahead:

Row | IC50 [1] [nM] | IC50 [2] [nM] | SMILES
21 | > 5000 | ≤ 500 | C[C@@H](Nc1ccc(Cl)nc1C(=O)O)c1cc(F)cc2c(=O)c3c(oc12)CN(S(=O)(=O)c1cccc2c1CCO2)CC3 [Compound C120]
22 | > 5000 | ≤ 500 | C[C@@H](Nc1ccc(Cl)nc1C(=O)O)c1cc(F)cc2c(=O)c3c(oc12)CN(S(=O)(=O)N1CCC(F)(F)CC1)CC3 [Compound C121]
23 | > 5000 | ≤ 500 | C[C@@H]1CN(S(=O)(=O)N2CCc3c(oc4c([C@@H](C)Nc5ccc(Cl)nc5C(=O)O)cc(F)cc4c3=O)C2)CCO1 [Compound C122]
24 | > 5000 | ≤ 500 | C[C@H]1CN(S(=O)(=O)N2CCc3c(oc4c([C@@H](C)Nc5ccc(Cl)nc5C(=O)O)cc(F)cc4c3=O)C2)CCO1 [Compound C123]
25 | > 5000 | 500 to 2000 | C[C@@H](Nc1ccc(Cl)nc1C(=O)O)c1cc(F)cc2c(=O)c3c(oc12)CN(S(=O)(=O)c1cccc(=O)n1C)CC3 [Compound C124]
26 | > 5000 | ≤ 500 | Cc1nn(C)c(C)c1S(=O)(=O)N1CCc2c(oc3c([C@@H](C)Nc4ccc(Cl)nc4C(=O)O)cc(F)cc3c2=O)C1 [Compound C125]
27 | > 5000 | 500 to 2000 | Cc1ncn(C)c1S(=O)(=O)N1CCc2c(oc3c([C@@H](C)Nc4ccc(Cl)nc4C(=O)O)cc(F)cc3c2=O)C1 [Compound C126]
28 | > 5000 | ≤ 500 | C[C@@H]1CN(S(=O)(=O)N2CCc3c(oc4c([C@@H](C)Nc5ccc(Cl)nc5C(=O)O)cc(F)cc4c3=O)C2)C[C@@H](C)O1 [Compound C127]
29 | > 5000 | ≤ 500 | Cc1cnn(C)c1S(=O)(=O)N1CCc2c(oc3c([C@@H](C)Nc4ccc(Cl)nc4C(=O)O)cc(F)cc3c2=O)C1 [Compound C128]
30 | > 5000 | ≤ 500 | C[C@@H](Nc1ccc(Cl)nc1C(=O)O)c1cc(F)cc2c(=O)c3c(oc12)CN(S(=O)(=O)c1cc(F)cc(F)c1F)CC3 [Compound C129]
31 | > 5000 | ≤ 500 | C[C@@H](Nc1ccc(Cl)nc1C(=O)O)c1cc(F)cc2c(=O)c3c(oc12)CN(S(=O)(=O)N1CCOC(C)(C)C1)CC3 [Compound C130]
32 | > 5000 | ≤ 500 | C[C@H]1CN(S(=O)(=O)N2CCc3c(oc4c([C@@H](C)Nc5ccc(Cl)nc5C(=O)O)cc(F)cc4c3=O)C2)C[C@H](C)O1 [Compound C132]
33 | > 5000 | ≤ 500 | CC1CN(S(=O)(=O)N2CCc3c(oc4c(C(C)Nc5ccc(Cl)nc5C(=O)O)cc(F)cc4c3=O)C2)CC(C)O1 (stereo not drawn) [Compound C133]
34 | > 5000 | ≤ 500 | Cc1nnn(C)c1S(=O)(=O)N1CCc2c(oc3c([C@@H](C)Nc4ccc(Cl)nc4C(=O)O)cc(F)cc3c2=O)C1 [Compound C134]
35 | > 5000 | ≤ 500 | C[C@@H](Nc1ccc(Cl)nc1C(=O)O)c1cc(F)cc2c(=O)c3c(oc12)CN(S(=O)(=O)c1c(F)ccc(F)c1F)CC3 [Compound C135]
36 | > 5000 | ≤ 500 | C[C@@H](Nc1ccc(Cl)nc1C(=O)O)c1cc(F)cc2c(=O)c3c(oc12)CN(S(=O)(=O)c1cccn2ncc(Cl)c12)CC3 [Compound C137]
37 | > 5000 | ≤ 500 | C[C@@H](Nc1ccc(Cl)nc1C(=O)O)c1cc(F)cc2c(=O)c3c(oc12)CN(S(=O)(=O)C1=CCOCC1)CC3 [Compound C138]
38 | > 5000 | ≤ 500 | Cc1cc([C@@H](C)Nc2ccccc2C(=O)O)c2oc3c(c(=O)c2c1)CCN(S(=O)(=O)c1c(C)noc1C)C3 [Compound C139]
39 | > 5000 | ≤ 500 | Cc1noc(C)c1S(=O)(=O)N1CCc2c(oc3c([C@@H](C)Nc4ccccc4C(=O)O)cc(F)cc3c2=O)C1 [Compound C140]
40 | > 5000 | 500 to 2000 | C[C@@H](Nc1ccccc1C(=O)O)c1cc(F)cc2c(=O)c3c(oc12)CN(S(=O)(=O)N1CCC(F)(F)CC1)CC3 [Compound C141]
41 | > 5000 | ≤ 500 | Cc1cc([C@@H](C)Nc2ccccc2C(=O)O)c2oc3c(c(=O)c2c1)CCN(S(=O)(=O)N1CCOC(C)(C)C1)C3 [Compound C142]
42 | > 5000 | ≤ 500 | C[C@@H](Nc1ccccc1C(=O)O)c1cc(F)cc2c(=O)c3c(oc12)CN(S(=O)(=O)N1CCOC(C)(C)C1)CC3 [Compound C143]
43 | > 5000 | ≤ 500 | Cc1cc([C@@H](C)Nc2ccccc2C(=O)O)c2oc3c(c(=O)c2c1)CCN(S(=O)(=O)N1CCO[C@H](C)C1)C3 [Compound C144]
44 | > 5000 | ≤ 500 | C[C@@H]1CN(S(=O)(=O)N2CCc3c(oc4c([C@@H](C)Nc5ccccc5C(=O)O)cc(F)cc4c3=O)C2)CCO1 [Compound C145]
45 | > 5000 | ≤ 500 | C[C@@H](Nc1ccccc1C(=O)O)c1cc(F)cc2c(=O)c3c(oc12)CN(S(=O)(=O)C1CCOCC1)CC3 [Compound C146]
